Drawing on US20120040930A1, “TETRACYCLIC TERPENE SERIES COMPOUNDS, METHODS FOR PREPARING SAME, USES THEREOF AS MEDICINES AND PHARMACEUTICAL COMPOUNDS CONTAINING SAME” (priority 2005, published 2012), this text covers IC50 for 9 molecules.

In assay [1] the target is T1, acetylcholinesterase (AChE) isolated from Electrophorus electricus (Electrophorus electricus, UniProt O42275).
T1 construct: AChE isolated from Electrophorus electricus; from tissue
Briefly: biochemical.

For assay [2], the target named is T2, human serum butyrylcholinesterase (BChE) (Homo sapiens, UniProt P06276).
T2 construct: BChE isolated from human serum; from tissue; host or cells: human serum
T2 sequence (P06276 29-602): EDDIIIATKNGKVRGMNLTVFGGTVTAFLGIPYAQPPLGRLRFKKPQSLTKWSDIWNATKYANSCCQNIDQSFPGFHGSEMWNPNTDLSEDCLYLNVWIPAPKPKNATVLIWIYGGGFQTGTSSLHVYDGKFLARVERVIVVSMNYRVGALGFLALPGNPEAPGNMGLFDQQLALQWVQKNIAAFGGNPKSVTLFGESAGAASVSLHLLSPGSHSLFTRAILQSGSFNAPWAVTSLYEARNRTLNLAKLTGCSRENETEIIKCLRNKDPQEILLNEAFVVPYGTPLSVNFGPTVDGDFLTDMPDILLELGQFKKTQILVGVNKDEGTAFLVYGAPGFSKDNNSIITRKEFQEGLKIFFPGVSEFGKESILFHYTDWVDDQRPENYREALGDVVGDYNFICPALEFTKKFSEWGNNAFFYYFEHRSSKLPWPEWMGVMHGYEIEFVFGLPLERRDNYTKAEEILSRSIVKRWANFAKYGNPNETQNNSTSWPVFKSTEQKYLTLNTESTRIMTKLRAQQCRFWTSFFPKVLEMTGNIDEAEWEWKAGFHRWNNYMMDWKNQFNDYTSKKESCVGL
Briefly: biochemical. The conditions noted are these: human serum BChE; read-out: BChE.

[3] abbreviates: AChE isolated from Electrophorus electricus, read-out: AChE IC50.

pIC50: −log10 of the molar value. Values joined by “and” are separate entries in the source; they are usually repeats but may differ in a detail not shown here. Identical values can stand only once. Like-named read-outs stand apart in the source and are kept apart here. A value given as a limit tells only on which side of the number the result lay.

T1 sequence (O42275 24-633): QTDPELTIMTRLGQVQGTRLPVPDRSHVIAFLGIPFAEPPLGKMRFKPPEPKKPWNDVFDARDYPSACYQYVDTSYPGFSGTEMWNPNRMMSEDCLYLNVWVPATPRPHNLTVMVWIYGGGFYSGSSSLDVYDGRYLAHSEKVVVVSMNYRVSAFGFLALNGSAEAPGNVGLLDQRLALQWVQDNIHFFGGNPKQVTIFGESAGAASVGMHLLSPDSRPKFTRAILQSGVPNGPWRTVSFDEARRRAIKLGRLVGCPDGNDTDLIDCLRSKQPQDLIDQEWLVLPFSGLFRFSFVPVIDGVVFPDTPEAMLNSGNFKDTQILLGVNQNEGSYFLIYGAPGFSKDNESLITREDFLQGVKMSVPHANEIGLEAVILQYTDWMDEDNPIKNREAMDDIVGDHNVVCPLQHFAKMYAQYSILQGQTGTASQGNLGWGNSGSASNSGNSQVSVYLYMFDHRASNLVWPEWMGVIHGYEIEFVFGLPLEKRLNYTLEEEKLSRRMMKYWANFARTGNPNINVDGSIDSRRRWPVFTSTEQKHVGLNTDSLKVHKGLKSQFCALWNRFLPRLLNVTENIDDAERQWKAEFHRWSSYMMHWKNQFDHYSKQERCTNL

With `CC(C)C(=O)NC1CC[C@]23CC24C(=O)C[C@]2(C)[C@@H]([C@H](C)N(C)C)[C@H](O)C[C@@]2(C)[C@@H]4CC[C@H]3[C@]1(C)CO` (stereo in doubt) [Compound 2, (20S)-3-isobutyrylamino-9,19-cyclo-4α-hydroxymethyl-4,14α-dimethyl-20-dimethylamino-5α,9-pregnan-16α-ol-11-one], the pIC50 in assay [1] (AChE IC50) and in assay [2] was less than 5.00 throughout.

Take `CC(C)C1=NC2CC=C3C[C@H]4C(=O)C[C@]5(C)[C@@H]([C@H](C)N(C)C)[C@H](O)C[C@@]5(C)[C@@H]4CC[C@H]3[C@]2(C)CO1` (stereo partly drawn) [Compound 1, (20S)-10(9->1)abeo-4,14α-dimethyl-20-dimethylamino-(2′-isopropyl-4′,4′-dihydro[3′,1′]oxazine)-5α,9-pregn-1(10)-en-16α-ol-11-one]: the pIC50 is 7.51 and 7.49 in assay [1] (setting [3]); less than 6.00 in assay [2].

As for `C[C@@H]([C@H]1[C@H](O)C[C@@]2(C)[C@@H]3CC[C@H]4[C@](C)(CO)[C@@H](N)CC[C@@]45CC35C(=O)C[C@]12C)N(C)C` (stereo partly drawn) [Compound 5, (20S)-3-amino-9,19-cyclo-4α-hydroxymethyl-4,14α-dimethyl-20-dimethylamino-5α,9-pregnan-16α-ol-11-one], the pIC50 in assay [1] (setting [3]) is less than 5.30; in assay [2], less than 4.52.

As to `C[C@@H]([C@H]1[C@H](O)C[C@@]2(C)[C@@H]3CC[C@H]4[C@](C)(CO)[C@@H](NC(=O)c5ccccc5)CC[C@@]45CC35C(=O)C[C@]12C)N(C)C` (stereo partly drawn) [Compound 6b, (20S)-3-benzoylamino-9,19-cyclo-4α-hydroxymethyl-4,14α-dimethyl-20-dimethylamino-5α,9-pregnan-16α-ol-11-one], the values for the pIC50 in assay [1] (setting [3]) and in assay [2] were less than 5.00 and 5.65, respectively.

`C[C@@H]([C@H]1[C@H](O)C[C@@]2(C)[C@@H]3CC[C@@H]4C5(CC[C@H](NC(=O)C6CCCCC6)[C@@]4(C)CO)C[C@@]35C(=O)C[C@]12C)N(C)C` (stereo partly drawn) [Compound 6d, (20S)-3-(cyclohexanecarboxylamino)-9,19-cyclo-4α-hydroxymethyl-4,14α-dimethyl-20-dimethylamino-5α,9-pregnan-16α-ol-11-one]: the results for the pIC50 in assay [1] (setting [3]) and in assay [2] were less than 5.00 and less than 5.30, respectively.

For `CCC(C)C(=O)N[C@H]1CCC23C[C@]24C(=O)C[C@]2(C)[C@@H]([C@H](C)N(C)C)[C@H](O)C[C@@]2(C)[C@@H]4CC[C@H]3[C@]1(C)CO` (stereo partly drawn) [Compound 6h, (20S)-9,19-cyclo-4α-hydroxymethyl-4,14α-dimethyl-20-dimethylamino-3 (2-methylbutyrylamino)-5α,9-pregnan-16α-ol-11-one], the values for the pIC50 in assay [1] (setting [3]) and in assay [2] were less than 4.00 and 6.92, respectively.

Consider `C[C@@H]([C@H]1[C@H](O)C[C@@]2(C)[C@@H]3CC[C@@H]4C(=CC[C@H](NC(=O)c5ccccc5)[C@@]4(C)CO)C[C@H]3C(=O)C[C@]12C)N(C)C` [Compound 7b, (20S)-10(9->1)abeo-3-benzoylamino-4α-hydroxymethyl-4,14α-dimethyl-20-dimethylamino-5α,9-pregn-1(10)-en-16α-ol-11-one], for which the pIC50 is less than 5.00 in assay [1] (setting [3]) and 5.73 in assay [2].

`CCC(=O)N[C@H]1CC=C2C[C@H]3C(=O)C[C@]4(C)[C@@H]([C@H](C)N(C)C)[C@H](O)C[C@@]4(C)[C@@H]3CC[C@H]2[C@]1(C)CO` [Compound 7c, (20S)-10(9->1)abeo-4α-hydroxymethyl-4,14α-dimethyl-20-dimethylamino-3-propionylamino-5α,9-pregn-1(10)-en-16α-ol-11-one]: the pIC50 in assay [1] (setting [3]) was less than 6.00; in assay [2], less than 5.00.

As to `C[C@@H]([C@H]1[C@H](O)C[C@@]2(C)[C@@H]3CC[C@@H]4C(=CC[C@H](NC(=O)C5CCCCC5)[C@@]4(C)CO)C[C@H]3C(=O)C[C@]12C)N(C)C` [Compound 7d, (20S)-10(9->1)abeo-3-(cyclohexanecarboxyamino)-4α-hydroxymethyl-4,14α-dimethyl-20-dimethylamino-5α,9-pregn-1(10)-en-16α-ol-11-one], the pIC50 in assay [1] (setting [3]) is less than 6.00; in assay [2], 5.40.
